Reference: US10550105B2 (Ribon Therapeutics Inc., priority 2018, dated 2020)

target: PARP7 (Homo sapiens (Human), UniProt Q7Z3E1); assay: Enzymatic assay for inhibition of PARP7: TR-FRET displacement of biotinylated Probe A from the TIPARP active site; assay type: binding; settings: Table A-1
In short: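 Titrated compounds compete with the biotinylated probe; after an additional 30 min incubation at 25° C, time-delayed fluorescence (90 μs) is measured. Inhibition curves use a Hill coefficient that normally floats but may be held at 1.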

PARP7, sequence (Q7Z3E1 whole entry): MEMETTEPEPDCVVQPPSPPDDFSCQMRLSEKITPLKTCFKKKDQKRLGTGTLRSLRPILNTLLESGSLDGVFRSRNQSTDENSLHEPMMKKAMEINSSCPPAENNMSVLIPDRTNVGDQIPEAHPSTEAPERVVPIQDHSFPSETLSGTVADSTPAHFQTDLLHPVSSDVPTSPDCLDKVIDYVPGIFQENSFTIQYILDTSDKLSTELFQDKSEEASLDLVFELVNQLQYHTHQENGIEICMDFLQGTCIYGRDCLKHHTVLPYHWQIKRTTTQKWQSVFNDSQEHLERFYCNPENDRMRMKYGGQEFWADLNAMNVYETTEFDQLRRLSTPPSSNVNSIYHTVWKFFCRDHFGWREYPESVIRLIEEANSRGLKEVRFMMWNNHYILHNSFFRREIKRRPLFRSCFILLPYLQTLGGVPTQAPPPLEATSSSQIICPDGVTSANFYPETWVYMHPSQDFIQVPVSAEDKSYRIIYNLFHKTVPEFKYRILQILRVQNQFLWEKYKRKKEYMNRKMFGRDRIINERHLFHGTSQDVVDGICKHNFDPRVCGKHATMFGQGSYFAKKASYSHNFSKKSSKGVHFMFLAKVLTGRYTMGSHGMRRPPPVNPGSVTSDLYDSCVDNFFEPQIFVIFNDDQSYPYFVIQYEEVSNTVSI

Row | IC50 [nM] | Compound
1 | < 100 | O=C(C[C@H]1CC[C@@H](CNc2cn[nH]c(=O)c2C(F)(F)F)O1)N1CCN(c2ncc(C(F)(F)F)cn2)CC1 [Example 568 Isomer C, 5-((((2S,5R)-5-(2-Oxo-2-(4-(5-(trifluoromethyl)pyrimidin-2-yl)piperazin-1-yl)ethyl)tetrahydrofuran-2-yl)methyl)amino)-4-(trifluoromethyl)pyridazin-3(2H)-one]
2 | < 100 | O=C(CCOCCOc1cn[nH]c(=O)c1C(F)(F)F)N1CCN(c2ccc(Cl)cn2)CC1 [Example 535, 5-(2-[3-[4-(5-Chloropyridin-2-yl)piperazin-1-yl]-3-oxopropoxy]ethoxy)-4-(trifluoromethyl)-2,3-dihydropyridazin-3-one]
3 | 100 to 1000 | O=c1[nH]ncc(N2Cc3cnc(OC4CCNCC4)cc3C2)c1C(F)(F)F [Example 12, 5-[6-(piperidin-4-yloxy)-1H,2H,3H-pyrrolo[3,4-c]pyridin-2-yl]-4-(trifluoromethyl)-2,3-dihydropyridazin-3-one]
4 | < 100 | [2H]C1([2H])N(C(=O)CCOC[C@H](C)Oc2cn[nH]c(=O)c2C(F)(F)F)C([2H])([2H])C([2H])([2H])N(c2ncc(Cl)cn2)C1([2H])[2H] [Example 715, (S)-5-((1-(3-(4-(5-Chloropyrimidin-2-yl)piperazin-1-yl-2,2,3,3,5,5,6,6-d8)-3-oxopropoxy)propan-2-yl)oxy)-4-(trifluoromethyl)pyridazin-3(2H)-one]
5 | 100 to 1000 | COC[C@H](COCCC(=O)N1CCN(c2cnc(Cl)cn2)CC1)Oc1cn[nH]c(=O)c1C(F)(F)F [Example 697, (R)-5-((1-(3-(4-(5-Chloropyrazin-2-yl)piperazin-1-yl)-3-oxopropoxy)-3-methoxypropan-2-yl)oxy)-4-(trifluoromethyl)pyridazin-3(2H)-one]
6 | ≥ 1000 | N#Cc1ccc(N2CCN(CCC(=O)NC[C@@H]3CCCN3c3cn[nH]c(=O)c3C(F)(F)F)CC2)nc1 [Example 134, (S)-3-(4-(5-cyanopyridin-2-yl)piperazin-1-yl)-N-((1-(6-oxo-5-(trifluoromethyl)-1,6-dihydropyridazin-4-yl)pyrrolidin-2-yl)methyl)propanamide]
7 | 100 to 1000 | O=c1[nH]ncc(N2Cc3ccccc3C2)c1Cl [Example 151, 4-Chloro-5-(isoindolin-2-yl)pyridazin-3(2H)-one]
8 | < 100 | N#Cc1ccc(N2CCN(C(=O)c3cccc(OCCOC[C@@H]4CCN(c5cn[nH]c(=O)c5C(F)(F)F)C4)c3)CC2)nc1 [Example 470, (R)-6-(4-(3-(2-((1-(6-Oxo-5-(trifluoromethyl)-1,6-dihydropyridazin-4-yl)pyrrolidin-3-yl)methoxy)ethoxy)benzoyl)piperazin-1-yl)nicotinonitrile]
9 | < 100 | Cc1cnc(N2CCN(C(=O)c3cccc(OC[C@@H]4CCCN4c4cn[nH]c(=O)c4C(F)(F)F)c3)CC2)nc1 [Example 447, (S)-5-(2-((3-(4-(5-Methylpyrimidin-2-yl)piperazine-1-carbonyl)phenoxy)methyl)pyrrolidin-1-yl)-4-(trifluoromethyl)pyridazin-3(2H)-one]
10 | < 100 | CC(=O)N1CCC(Oc2cc3c(cc2F)CN(c2cn[nH]c(=O)c2C(F)(F)F)C3)C1 (stereo not drawn) [Example 54, 5-(5-(1-acetylpyrrolidin-3-yloxy)-6-fluoroisoindolin-2-yl)-4-(trifluoromethyl)pyridazin-3(2H)-one]
11 | 100 to 1000 | C[C@@H](COCCC(=O)N1CCN(c2ncc(C(F)(F)F)cn2)CC1)N(C)c1cn[nH]c(=O)c1C(F)(F)F [Example 641, (S)-5-(Methyl(1-(3-oxo-3-(4-(5-(trifluoromethyl)pyrimidin-2-yl)piperazin-1-yl)propoxy)propan-2-yl)amino)-4-(trifluoromethyl)pyridazin-3(2H)-one]
12 | < 100 | O=c1[nH]ncc(N2Cc3cccc(OCc4cccnc4)c3C2)c1C(F)(F)F [Example 197, 5-(4-(Pyridin-3-ylmethoxy)isoindolin-2-yl)-4-(trifluoromethyl)pyridazin-3(2H)-one]
